Source: patent US8420100B2, “Tumor suppressor activating polypeptides and uses thereof” (Department of Biotechnology, priority 2006, dated 2013)

Columns and labels:
[1] = test system: protein kinase C (PKC) family of proteins; test: In vitro phosphorylation (kinase) assay with HEK 293 whole cell extract; assay type: biochemical; conditions: for phosphorylation of peptide by extract of staurosporine-treated cells: extract from 293 cells treated with 20 nM staurosporine (PKC inhibitor); for phosphorylation of peptide by whole cell extract: extract from untreated 293 cells
[2] = test system: cdc2 (tyrosine 15 phosphorylation, pcdc-2); test: Western blotting for pcdc-2 in peptide-treated HEK 293 cells; assay type: cell-based; conditions: for pcdc-2 level: HEK 293, 10 μM peptide, 12 h (FIG. 4A); for pcdc-2 level compared to untreated cells: HEK 293, peptide-treated lysates (FIG. 3C, 3D)
Procedure: P44 peptide controls the activity of cell cycle regulatory proteins: The minimal dose of P44 peptide that was functionally effective in activating p53 was evaluated by incubating HEK 293 cells with varying concentrations of P44 peptide (1-100 μM) (FIG. 3A) and after 12 h of incubation, protein lysates were prepared and processed for immunoblotting with total p53 (DO-1) and p53 ser-15 phospho-specific antibodies. […] However, there was a 4.5-fold increase in the expression of phosphorylated p53 (pSerine-15 p53) in P44 peptide-treated cells (FIG. 3A, lanes 2-6). To exclude the possibility that p53 activation is an effect of the protein transduction domain of HIV-1 TAT protein, similar set of experiment was performed using TAT-PTD peptide alone (consisting of only the 11-mer TAT-sequence). […] This observation reconfirmed that the RS domain (288-350 aa) of SMAR1 could exclusively activate p53 by mediating its phosphorylation specifically at serine-15 residue. Serine-15 phosphorylation of p53 is associated with its increased transcription efficiency, decreased affinity for MDM2, and its increased nuclear retention. One of the target genes activated by p53 is p21, an inhibitor of a subset of the cyclin-dependent kinases including cdc-2 (Sherr, C. J., and Roberts, J. M. (1999) Genes Dev. 13, 1501-1512). To evaluate the significance of peptide-mediated p53 activation, P44 peptide-treated lysates were further checked for tyrosine 15 phosphorylation of cdc2. […] HEK 293 cells were treated with SM peptide and checked for p53 as well as pcdc-2 levels.
Serine 347 residue of SMAR1: critical for mediating the effects of full-length SMAR1: Once it was established that the serine motif (SSSSYS) plays a pivotal role in SMAR1-mediated p53 activation, it got necessary to identify the serine residue within this motif that might be necessary in mediating these effects. To identify the critical serine residue within P44 peptide, various point-mutant peptides were custom synthesized, that varied with respect to the position of serine residue that was mutated (Table 1). To evaluate the functionality of mutant chimeric TAT-SMAR1 peptides [PS347A, PS348A, PS349A, PS350A and RS mutant (SM)] in comparison to the TAT-SMAR1 WT peptide (P44), HEK 293 cells were treated with 10 μM concentration of either of the peptides and protein lysates were prepared after 12 h incubation period. The lysates were then processed for immunoblotting with pSer-15 p53 and pcdc-2 antibodies. […] However, this was not the case with other mutated peptides. When the alanine was replaced back to serine at the 347 residue (FIG. 4A, lanes 3-5), the functionality of the peptide was restored as observed with increase in pcdc-2 levels. […] However, in case of SM (where serine residues from 347-350 were replaced by alanines) treated cells (FIG. 4A, lane 7), there was no difference in the pSer-15 p53 as well as pcdc-2 levels compared to either untreated or PS347A treated cells (FIG. 4A, lanes 1 and 2, respectively).
FIG. 3. P44 peptide activates p53-mediated cell cycle pathway. A, HEK 293 cells were seeded at a density of 5×10^5 and after 24 h, was incubated with increasing concentrations of the TAT-SMAR1 WT (P44) peptide. Protein lysates were prepared and then immunoblotted with antibodies to total p53, phospho serine-15. B, The same set of experiment was repeated with TAT PTD peptide representing the PTD carrier sequence alone and immunoblotted with phospho serine-15, in comparison of P44 treated cells. C, The status of phospho cdc-2 was further analyzed in P44 peptide treated cells. Total […] was used as an internal control. D, The same set of experiments were again repeated using TAT-SMAR1 RS mutant (SM) peptide and whole cell lysates were probed for phospho p53 serine-15 and pcdc-2 antibodies. […] was used as a loading control.
FIG. 4. Serine 347 residue of SMAR1 mediates p53 activation and stabilization. […]

p53 = molecular target: T1, p53 (Homo sapiens, UniProt P04637); test: Indirect immunofluorescence of p53 in peptide-treated HEK 293 cells (confocal imaging); assay type: cell-based; conditions: HEK 293, 10 μM peptide, 12 h
T1 construct: HEK 293 (p53^+/+) cells; endogenous in cells; host or cells: HEK 293
T1 sequence (P04637 whole entry): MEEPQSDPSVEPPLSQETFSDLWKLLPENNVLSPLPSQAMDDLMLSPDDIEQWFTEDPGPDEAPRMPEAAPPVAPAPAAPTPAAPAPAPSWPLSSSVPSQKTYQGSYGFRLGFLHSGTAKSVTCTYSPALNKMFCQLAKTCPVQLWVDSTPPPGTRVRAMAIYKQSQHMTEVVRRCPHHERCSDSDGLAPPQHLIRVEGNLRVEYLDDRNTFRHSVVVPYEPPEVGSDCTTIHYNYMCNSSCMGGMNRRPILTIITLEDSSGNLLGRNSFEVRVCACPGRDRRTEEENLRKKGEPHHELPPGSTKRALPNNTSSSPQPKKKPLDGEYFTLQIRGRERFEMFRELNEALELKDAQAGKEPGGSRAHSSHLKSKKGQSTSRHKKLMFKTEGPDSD
Procedure: HEK 293 cells were treated with 10 μM of various TAT-SMAR1 derived peptides.
FIG. 4. Serine 347 residue of SMAR1 mediates p53 activation and stabilization. A, HEK 293 cells were cultured at a density of 5×10^5 cells and 24 h later treated with 10 μM concentration of either the P44 or various serine-mutant peptides (PS347A, PS348A, PS349A, PS350A and RS mutant; SM). After 12 h of treatment, protein lysates were prepared and immunoblotted using pSer-15 p53 and pcdc-2 antibodies. Actin was used as the loading control. B, Peptides P44 (panel B), PS347A (panel C), PS348A (panel D), PS349A (panel E), PS350A (panel F) and SM (panel G) were incubated at a final concentration of 10 μM with HEK 293 cells for 12 h before indirect immunofluorescence detection with a primary antibody against p53 protein and a secondary fluorescein-conjugated anti-mouse IgG.
Immunocytochemistry and confocal imaging: For direct detection of TRITC-labeled peptides, HEK 293 cells were plated directly on a glass coverslip and cultured overnight prior to their treatment to TRITC-conjugated various TAT-SMAR1 derived peptides. After 12 h incubation, three washings with cold PBS were given and the cells fixed with 3.7% paraformaldehyde before being mounted in PBS/Glycerol (1:1) containing antifading agent. For indirect immunodetection, 2×10^5 HEK 293 cells were plated and cultured overnight in 35 mm plates on glass coverslips. The cell monolayer was then treated with either of the various TAT SMAR1 derived peptides, dissolved directly in complete DMEM medium at the appropriate concentration (final concentration 10 μM). After 12 h incubation, cells were washed twice with cold PBS and fixed with 3.7% paraformaldehyde. Subsequently, fixed cells were stained for total p53 using anti-p53 (DO-1) (SantaCruz) for an hour at room temperature.
For detection, cells were incubated with a secondary-antibody mix containing FITC-conjugated anti-mouse IgG antibodies (Sigma) for 1 h at RT. Slides were then mounted in antifade mounting medium (Dako) and analyzed with a confocal laser scanning microscope (CLSM 510, version 2.01; Zeiss, Thornwood, N.Y.).

YGRKKRRQRRRTAWRRKQRGQSLAVKSFSRRTPAAAAYSASETM [SM, P44 mutant where serine residues from 347-350 were replaced by alanines]
phosphorylation of peptide by extract of staurosporine-treated cells [1]: no difference | phosphorylation of peptide by whole cell extract [1]: not and further reduction in its phosphorylation compared to PS347A peptide | pcdc-2 level [2]: no difference | pcdc-2 level compared to untreated cells [2]: no increase | p53 activation and stabilization within the nucleus (p53): almost negligible expression of p53 within the nucleus

YGRKKRRQRRRTAWRRKQRGQSLAVKSFSRRTPSSSSYSASETM [P44, 33 mer SMAR1 peptide (residues 324-357) conjugated with 11-mer TAT-PTD]
phosphorylation of peptide by extract of staurosporine-treated cells [1]: failed to phosphorylate | phosphorylation of peptide by whole cell extract [1]: gets phosphorylated | increased γ-P32 ATP incorporation in comparison to mutant counterpart (SM) ([1]; whole cell extract from untreated 293 cells): 6 to 7 fold | pcdc-2 level [2]: increase | pcdc-2 level compared to untreated cells [2]: upregulation | p53 activation and stabilization within the nucleus (p53): activate and stabilize p53 within the nucleus

YGRKKRRQRRRTAWRRKQRGQSLAVKSFSRRTPSSASYSASETM [PS349A, point mutant of P44, serine 349 replaced by alanine]
phosphorylation of peptide by extract of staurosporine-treated cells [1]: failed to phosphorylate | pcdc-2 level [2]: increase | p53 activation and stabilization within the nucleus (p53): p53 stabilization was observed

YGRKKRRQRRRTAWRRKQRGQSLAVKSFSRRTPASSSYSASETM [PS347A, point mutant of P44, serine 347 replaced by alanine]
phosphorylation of peptide by extract of staurosporine-treated cells [1]: no difference | phosphorylation of peptide by whole cell extract [1]: abolished | pcdc-2 level [2]: decreased | p53 activation and stabilization within the nucleus (p53): almost negligible expression of p53 within the nucleus

YGRKKRRQRRRTAWRRKQRGQSLAVKSFSRRTPSASSYSASETM [PS348A, point mutant of P44, serine 348 replaced by alanine]
phosphorylation of peptide by extract of staurosporine-treated cells [1]: failed to phosphorylate | pcdc-2 level [2]: increase | p53 activation and stabilization within the nucleus (p53): p53 stabilization was observed

YGRKKRRQRRRTAWRRKQRGQSLAVKSFSRRTPSSSAYSASETM [PS350A, point mutant of P44, serine 350 replaced by alanine]
phosphorylation of peptide by extract of staurosporine-treated cells [1]: failed to phosphorylate | pcdc-2 level [2]: increase | p53 activation and stabilization within the nucleus (p53): p53 stabilization was observed
